Target: Helios (Homo sapiens, UniProt Q96SW2+Q9UKS7)
Assay: Helios Human T Regulatory Cells Degradation Assay
Assay type: cell-based
Parameters: fluorescently labelled antibodies against Helios in 1× Permeabilization buffer; endogenous in cells; host or cells: cryopreserved human T regulatory cells
Details: cryopreserved human T regulatory cells, incubated 20 hours, Helios-APC antibody staining, flow cytometry; read-out: hTreg Helios DC50
Method: Cryopreserved human T regulatory cells were thawed in RPMI+10% FBS+20 ng/mL IL-2. After being spun at 1200 rpm for 5 mins, the cells were resuspended in RPMI+10% FBS+20 ng/mL and rested at 37° C. with 5% CO2 for 3 hours. […] Cell cultures were incubated for 20 hours at 37° C. and 5% CO2. In order to facilitate analysis, cell cultures were spun down at 1200 rpm for 5 minutes and the supernatant was discarded using an EL406 plate washer. After washing three times with 70 μL PBS, cell pellets were resuspended in 50 μL of near IR viability staining solution (Life Technologies, Cat #L34975) and incubated for 30 minutes on ice protected from light. Cells were washed three times with 70 μL PBS+0.5% BSA using an EL406 plate washer. […] Subsequently, 30 μL of 1× Permeabilization buffer was added prior to centrifuging the cells and discarding the supernatant. Stained cells were resuspended in 30 μL of flow cytometry staining buffer (PBS+0.5% BSA) and analyzed using an Intellicyt Ique Plus flow cytometer.

Helios, sequence (Q9UKS7 whole entry): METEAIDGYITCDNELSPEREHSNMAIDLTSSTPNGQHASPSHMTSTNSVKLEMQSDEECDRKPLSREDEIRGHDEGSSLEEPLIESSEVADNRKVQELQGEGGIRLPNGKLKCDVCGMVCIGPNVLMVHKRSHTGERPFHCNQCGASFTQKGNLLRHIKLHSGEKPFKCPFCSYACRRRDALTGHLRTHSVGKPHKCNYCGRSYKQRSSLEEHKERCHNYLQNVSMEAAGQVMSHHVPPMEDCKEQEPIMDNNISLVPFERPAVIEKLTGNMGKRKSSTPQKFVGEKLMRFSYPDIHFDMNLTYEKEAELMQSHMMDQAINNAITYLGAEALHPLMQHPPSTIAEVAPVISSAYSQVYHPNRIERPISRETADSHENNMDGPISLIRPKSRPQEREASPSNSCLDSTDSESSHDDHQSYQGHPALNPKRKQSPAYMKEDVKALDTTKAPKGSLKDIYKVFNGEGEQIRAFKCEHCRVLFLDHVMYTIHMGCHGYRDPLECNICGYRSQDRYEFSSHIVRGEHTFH
Helios, sequence (Q96SW2 whole entry): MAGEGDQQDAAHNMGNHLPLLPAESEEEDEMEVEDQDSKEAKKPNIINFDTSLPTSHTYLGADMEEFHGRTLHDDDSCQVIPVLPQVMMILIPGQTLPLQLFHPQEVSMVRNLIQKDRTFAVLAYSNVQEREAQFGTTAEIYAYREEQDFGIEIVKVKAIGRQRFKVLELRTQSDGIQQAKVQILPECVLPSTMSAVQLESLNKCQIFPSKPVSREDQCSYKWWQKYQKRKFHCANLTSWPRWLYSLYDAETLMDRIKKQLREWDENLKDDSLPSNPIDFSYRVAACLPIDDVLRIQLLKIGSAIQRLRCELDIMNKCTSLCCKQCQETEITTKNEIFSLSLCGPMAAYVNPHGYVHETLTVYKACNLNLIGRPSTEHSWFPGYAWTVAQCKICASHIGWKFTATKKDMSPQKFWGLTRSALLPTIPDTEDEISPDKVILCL
Helios, sequence (Q16531 whole entry partner): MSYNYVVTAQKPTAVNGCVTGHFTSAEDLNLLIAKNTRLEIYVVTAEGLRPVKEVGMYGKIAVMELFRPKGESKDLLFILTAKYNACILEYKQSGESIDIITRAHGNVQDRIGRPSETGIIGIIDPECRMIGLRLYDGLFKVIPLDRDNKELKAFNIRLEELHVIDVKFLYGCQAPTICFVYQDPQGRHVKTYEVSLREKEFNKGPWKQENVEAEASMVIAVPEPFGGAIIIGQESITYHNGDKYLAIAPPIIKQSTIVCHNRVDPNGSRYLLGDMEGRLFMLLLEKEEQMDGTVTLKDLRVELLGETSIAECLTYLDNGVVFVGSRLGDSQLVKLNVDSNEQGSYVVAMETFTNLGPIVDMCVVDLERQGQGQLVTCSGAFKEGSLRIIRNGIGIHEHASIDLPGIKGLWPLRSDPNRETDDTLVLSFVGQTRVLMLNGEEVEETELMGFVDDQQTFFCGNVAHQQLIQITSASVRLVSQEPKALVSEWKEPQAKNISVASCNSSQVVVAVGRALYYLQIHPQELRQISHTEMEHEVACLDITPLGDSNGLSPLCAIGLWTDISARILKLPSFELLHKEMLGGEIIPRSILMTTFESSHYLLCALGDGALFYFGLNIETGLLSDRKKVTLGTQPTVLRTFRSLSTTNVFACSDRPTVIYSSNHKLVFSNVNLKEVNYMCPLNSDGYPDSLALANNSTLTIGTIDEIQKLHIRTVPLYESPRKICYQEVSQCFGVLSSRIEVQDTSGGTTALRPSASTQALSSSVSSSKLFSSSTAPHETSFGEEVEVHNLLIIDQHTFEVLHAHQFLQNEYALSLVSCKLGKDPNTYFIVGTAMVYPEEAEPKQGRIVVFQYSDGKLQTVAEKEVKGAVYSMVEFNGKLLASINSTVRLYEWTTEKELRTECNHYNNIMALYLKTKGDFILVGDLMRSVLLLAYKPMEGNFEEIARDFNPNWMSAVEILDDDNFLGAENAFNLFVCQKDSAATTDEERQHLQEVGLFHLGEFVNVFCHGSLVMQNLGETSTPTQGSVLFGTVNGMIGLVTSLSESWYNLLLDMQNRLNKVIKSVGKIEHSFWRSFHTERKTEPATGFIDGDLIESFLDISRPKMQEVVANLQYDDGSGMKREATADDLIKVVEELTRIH

Structure (SMILES) | DC50
O=C1CCC(N2Cc3cc(-c4nccc(CN5CC6(CCC6)C5)c4F)ccc3C2=O)C(=O)N1 (centres unmarked) [Example 88, 3-(5-(4-((2-azaspiro[3.3]heptan-2-yl)methyl)-3-fluoropyridin-2-yl)-1-oxoisoindolin-2-yl)piperidine-2,6-dione] | 3.4 nM
CC(C)(O)C1CN(Cc2ccnc(-c3ccc4c(c3)CN(C3CCC(=O)NC3=O)C4=O)c2F)C1 (centres unmarked) [Example 89, 3-(5-(3-fluoro-4-((3-(2-hydroxypropan-2-yl)azetidin-1-yl)methyl)pyridin-2-yl)-1-oxoisoindolin-2-yl)piperidine-2,6-dione] | 18.4 nM
C[C@H]1[C@H](O)CN1Cc1ccnc(-c2ccc3c(c2)CN(C2CCC(=O)NC2=O)C3=O)c1F (stereo partly drawn) [Example 90, 3-(5-(3-fluoro-4-(((2S,3R)-3-hydroxy-2-methylazetidin-1-yl)methyl)pyridin-2-yl)-1-oxoisoindolin-2-yl)piperidine-2,6-dione] | 454 nM
O=C1CCC(N2Cc3cc(-c4nccc(CN5CCC(O)(c6ccccc6)CC5)c4F)ccc3C2=O)C(=O)N1 (centres unmarked) [Example 91, 3-(5-(3-fluoro-4-((4-hydroxy-4-phenylpiperidin-1-yl)methyl)pyridin-2-yl)-1-oxoisoindolin-2-yl)piperidine-2,6-dione] | ≥ 10000 nM
CC(C)(O)C1CCN(Cc2cc(-c3ccc4c(c3)CN(C3CCC(=O)NC3=O)C4=O)ncc2F)CC1 (centres unmarked) [Example 92, 3-(5-(5-fluoro-4-((4-(2-hydroxypropan-2-yl)piperidin-1-yl)methyl)pyridin-2-yl)-1-oxoisoindolin-2-yl)piperidine-2,6-dione] | 1.2 nM
O=C1CCC(N2Cc3cc(-c4cc(CN5CC6(CCC6)C5)c(F)cn4)ccc3C2=O)C(=O)N1 (centres unmarked) [Example 93, 3-(5-(4-((2-azaspiro[3.3]heptan-2-yl)methyl)-5-fluoropyridin-2-yl)-1-oxoisoindolin-2-yl) piperidine-2,6-dione] | 1.7 nM
CC(C)(O)[C@H]1CCCN1Cc1ccnc(-c2ccc3c(c2)CN(C2CCC(=O)NC2=O)C3=O)c1Cl (stereo partly drawn) [Example 96, 3-(5-(3-chloro-4-(((R)-2-(2-hydroxypropan-2-yl)pyrrolidin-1-yl)methyl)pyridin-2-yl)-1-oxoisoindolin-2-yl)piperidine-2,6-dione] | 6.6 nM
CC(C)(O)C1CN(Cc2ccnc(-c3ccc4c(c3)CN(C3CCC(=O)NC3=O)C4=O)c2Cl)C1 (centres unmarked) [Example 97, 3-(5-(3-chloro-4-((3-(2-hydroxypropan-2-yl)azetidin-1-yl)methyl)pyridin-2-yl)-1-oxoisoindolin-2-yl) piperidine-2,6-dione] | 17.1 nM
COCC1CCCN(Cc2ccnc(-c3ccc4c(c3)CN(C3CCC(=O)NC3=O)C4=O)c2)C1 (centres unmarked) [Example 99, 3-(5-(4-((3-(methoxymethyl)piperidin-1-yl)methyl)pyridin-2-yl)-1-oxoisoindolin-2-yl)piperidine-2,6-dione] | 2 nM
O=C1CCC(N2Cc3cc(-c4cc(CN5CCC6(CC5)COC6)ccn4)ccc3C2=O)C(=O)N1 (centres unmarked) [Example 100, 3-(5-(4-((2-oxa-7-azaspiro[3.5]nonan-7-yl)methyl)pyridin-2-yl)-1-oxoisoindolin-2-yl)piperidine-2,6-dione] | 3.2 nM
O=C1CCC(N2Cc3cc(-c4cc(CN5C[C@@H]6C(CO)[C@@H]6C5)ccn4)ccc3C2=O)C(=O)N1 (stereo partly drawn) [Example 101, 3-(5-(4-(((1R,5S,6r)-6-(hydroxymethyl)-3-azabicyclo[3.1.0]hexan-3-yl)methyl)pyridin-2-yl)-1-oxoisoindolin-2-yl)piperidine-2,6-dione] | 4.2 nM
O=C1CCC(N2Cc3cc(-c4cc(CN5CC[C@@H](CO)C5)ccn4)ccc3C2=O)C(=O)N1 (stereo partly drawn) [Example 102, 3-(5-(4-(((R)-3-(hydroxymethyl)pyrrolidin-1-yl)methyl)pyridin-2-yl)-1-oxoisoindolin-2-yl)piperidine-2,6-dione] | 8.1 nM
O=C1CCC(N2Cc3cc(-c4cc(CN5Cc6cnc(Cl)cc6C5)ccn4)ccc3C2=O)C(=O)N1 (centres unmarked) [Example 103, 3-(5-(4-((6-chloro-1,3-dihydro-2H-pyrrolo[3,4-c]pyridin-2-yl)methyl)pyridin-2-yl)-1-oxoisoindolin-2-yl)piperidine-2,6-dione] | 4110 nM
CC(C)(O)[C@H]1CCN(Cc2ccnc(-c3ccc4c(c3)CN(C3CCC(=O)NC3=O)C4=O)c2)C1 (stereo partly drawn) [Example 104, 3-(5-(4-(((S)-3-(2-hydroxypropan-2-yl)pyrrolidin-1-yl)methyl)pyridin-2-yl)-1-oxoisoindolin-2-yl)piperidine-2,6-dione] | 4.2 nM
O=C1CCC(N2Cc3cc(-c4cc(CN5CC[C@H](CO)C5)ccn4)ccc3C2=O)C(=O)N1 (stereo partly drawn) [Example 105, 3-(5-(4-(((S)-3-(hydroxymethyl)pyrrolidin-1-yl)methyl)pyridin-2-yl)-1-oxoisoindolin-2-yl) piperidine-2,6-dione] | 0.4 nM
CC(C)(O)[C@@H]1CCN(Cc2ccnc(-c3ccc4c(c3)CN(C3CCC(=O)NC3=O)C4=O)c2)C1 (stereo partly drawn) [Example 106, 3-(5-(4-(((R)-3-(2-hydroxypropan-2-yl)pyrrolidin-1-yl)methyl)pyridin-2-yl)-1-oxoisoindolin-2-yl)piperidine-2,6-dione] | 6 nM
CC(O)C1CCN(Cc2ccnc(-c3ccc4c(c3)CN(C3CCC(=O)NC3=O)C4=O)c2)C1 (centres unmarked) [Example 107, 3-(5-(4-((3-(1-hydroxyethyl)pyrrolidin-1-yl)methyl)pyridin-2-yl)-1-oxoisoindolin-2-yl)piperidine-2,6-dione] | 5.8 nM

Other lines, results leading:

DC50 | Structure (SMILES)
653 nM | CC1CC(O)CCN1Cc1ccnc(-c2ccc3c(c2)CN(C2CCC(=O)NC2=O)C3=O)c1F (single isomer, unassigned) [Example 212, 3-(5-(3-fluoro-4-((4-hydroxy-2-methylpiperidin-1-yl)methyl)pyridin-2-yl)-1-oxoisoindolin-2-yl)piperidine-2,6-dione]
3.5 nM | CC(C)(C)OC(=O)[C@@H]1C[C@@H](OC(C)(C)C)CN1Cc1ccnc(-c2ccc3c(c2)CN(C2CCC(=O)NC2=O)C3=O)c1F (single isomer, unassigned) [Example 214]
11.5 nM | CC1(O)CC2CN(Cc3ccnc(-c4ccc5c(c4)CN(C4CCC(=O)NC4=O)C5=O)c3)CC2C1 (stereo in doubt) [Example 147, (3S)-3-(5-(4-((5-hydroxy-5-methylhexahydrocyclopenta[c]pyrrol-2(1H)-yl)methyl)pyridin-2-yl)-1-oxoisoindolin-2-yl)piperidine-2,6-dione]
1.4 nM | CC(O)C1CCN(Cc2ccnc(-c3ccc4c(c3)CN(C3CCC(=O)NC3=O)C4=O)c2)CC1 (centres unmarked) [Example 108, 3-(5-(4-((4-(1-hydroxyethyl)piperidin-1-yl)methyl)pyridin-2-yl)-1-oxoisoindolin-2-yl)piperidine-2,6-dione]
21.3 nM | O=C1CCC(N2Cc3cc(-c4nccc(CN5CC[C@H](CO)C5)c4F)ccc3C2=O)C(=O)N1 (stereo partly drawn) [Example 109, 3-(5-(3-fluoro-4-(((S)-3-(hydroxymethyl)pyrrolidin-1-yl)methyl)pyridin-2-yl)-1-oxoisoindolin-2-yl)piperidine-2,6-dione]
9.8 nM | CC(C)(O)[C@H]1CCN(Cc2ccnc(-c3ccc4c(c3)CN(C3CCC(=O)NC3=O)C4=O)c2F)C1 (stereo partly drawn) [Example 110, 3-(5-(3-fluoro-4-(((S)-3-(2-hydroxypropan-2-yl)pyrrolidin-1-yl)methyl)pyridin-2-yl)-1-oxoisoindolin-2-yl)piperidine-2,6-dione]
10.4 nM | CC(C)(O)[C@@H]1CCN(Cc2ccnc(-c3ccc4c(c3)CN(C3CCC(=O)NC3=O)C4=O)c2F)C1 (stereo partly drawn) [Example 111, 3-(5-(3-fluoro-4-(((R)-3-(2-hydroxypropan-2-yl)pyrrolidin-1-yl)methyl)pyridin-2-yl)-1-oxoisoindolin-2-yl) piperidine-2,6-dione]
9.5 nM | CC(O)C1CCN(Cc2ccnc(-c3ccc4c(c3)CN(C3CCC(=O)NC3=O)C4=O)c2F)C1 (centres unmarked) [Example 112, 3-(5-(3-fluoro-4-((3-(1-hydroxyethyl)pyrrolidin-1-yl)methyl)pyridin-2-yl)-1-oxoisoindolin-2-yl)piperidine-2,6-dione]
13.9 nM | CC(O)C1CCN(Cc2ccnc(-c3ccc4c(c3)CN(C3CCC(=O)NC3=O)C4=O)c2F)CC1 (centres unmarked) [Example 113, 3-(5-(3-fluoro-4-((4-(1-hydroxyethyl)piperidin-1-yl)methyl)pyridin-2-yl)-1-oxoisoindolin-2-yl) piperidine-2,6-dione]
23.5 nM | O=C1CCC(N2Cc3cc(-c4nccc(CN5CC[C@H](O)C5)c4F)ccc3C2=O)C(=O)N1 (stereo partly drawn) [Example 114, 3-(5-(3-fluoro-4-(((S)-3-hydroxypyrrolidin-1-yl)methyl)pyridin-2-yl)-1-oxoisoindolin-2-yl)piperidine-2,6-dione]
23.1 nM | C[C@@H]1c2c(ccc(-c3cc(CN4CC[C@@H](CO)C4)ccn3)c2F)C(=O)N1[C@H]1CCC(=O)NC1=O [Example 133, (S)-3-((R)-4-fluoro-5-(4-(((R)-3-(hydroxymethyl)pyrrolidin-1-yl)methyl)pyridin-2-yl)-3-methyl-1-oxoisoindolin-2-yl)piperidine-2,6-dione]
367 nM | C[C@@H]1c2c(ccc(-c3cc(CN4CCC(O)(c5ccccc5)C4)ccn3)c2F)C(=O)N1[C@H]1CCC(=O)NC1=O (stereo partly drawn) [Example 139, (3S)-3-((3R)-4-fluoro-5-(4-((3-hydroxy-3-phenylpyrrolidin-1-yl)methyl)pyridin-2-yl)-3-methyl-1-oxoisoindolin-2-yl)piperidine-2,6-dione]

From patent US20250346574A1, “PYRIDINYL SUBSTITUTED OXOISOINDOLINE COMPOUNDS FOR THE TREATMENT OF CANCER” (Bristol-Myers Squibb Company, priority 2021, published 2025)
